Measurements published in ChEMBL document CHEMBL5034043, “Bifunctional Compounds as SMARCA2 Degraders for Treating Cancer” (ACS Med Chem Lett, 2022).

Target: SWI/SNF-related matrix-associated actin-dependent regulator of chromatin subfamily A member 2 (Homo sapiens, UniProt P51531)
Assay: Induction of degradation of HiBit-tagged SMARCA2 in human A549 cells incubated for 6 hrs by NanoGlo HiBiT lytic assay
Type: cell-based

Chain of SWI/SNF-related matrix-associated actin-dependent regulator of chromatin subfamily A member 2 (P51531 whole entry): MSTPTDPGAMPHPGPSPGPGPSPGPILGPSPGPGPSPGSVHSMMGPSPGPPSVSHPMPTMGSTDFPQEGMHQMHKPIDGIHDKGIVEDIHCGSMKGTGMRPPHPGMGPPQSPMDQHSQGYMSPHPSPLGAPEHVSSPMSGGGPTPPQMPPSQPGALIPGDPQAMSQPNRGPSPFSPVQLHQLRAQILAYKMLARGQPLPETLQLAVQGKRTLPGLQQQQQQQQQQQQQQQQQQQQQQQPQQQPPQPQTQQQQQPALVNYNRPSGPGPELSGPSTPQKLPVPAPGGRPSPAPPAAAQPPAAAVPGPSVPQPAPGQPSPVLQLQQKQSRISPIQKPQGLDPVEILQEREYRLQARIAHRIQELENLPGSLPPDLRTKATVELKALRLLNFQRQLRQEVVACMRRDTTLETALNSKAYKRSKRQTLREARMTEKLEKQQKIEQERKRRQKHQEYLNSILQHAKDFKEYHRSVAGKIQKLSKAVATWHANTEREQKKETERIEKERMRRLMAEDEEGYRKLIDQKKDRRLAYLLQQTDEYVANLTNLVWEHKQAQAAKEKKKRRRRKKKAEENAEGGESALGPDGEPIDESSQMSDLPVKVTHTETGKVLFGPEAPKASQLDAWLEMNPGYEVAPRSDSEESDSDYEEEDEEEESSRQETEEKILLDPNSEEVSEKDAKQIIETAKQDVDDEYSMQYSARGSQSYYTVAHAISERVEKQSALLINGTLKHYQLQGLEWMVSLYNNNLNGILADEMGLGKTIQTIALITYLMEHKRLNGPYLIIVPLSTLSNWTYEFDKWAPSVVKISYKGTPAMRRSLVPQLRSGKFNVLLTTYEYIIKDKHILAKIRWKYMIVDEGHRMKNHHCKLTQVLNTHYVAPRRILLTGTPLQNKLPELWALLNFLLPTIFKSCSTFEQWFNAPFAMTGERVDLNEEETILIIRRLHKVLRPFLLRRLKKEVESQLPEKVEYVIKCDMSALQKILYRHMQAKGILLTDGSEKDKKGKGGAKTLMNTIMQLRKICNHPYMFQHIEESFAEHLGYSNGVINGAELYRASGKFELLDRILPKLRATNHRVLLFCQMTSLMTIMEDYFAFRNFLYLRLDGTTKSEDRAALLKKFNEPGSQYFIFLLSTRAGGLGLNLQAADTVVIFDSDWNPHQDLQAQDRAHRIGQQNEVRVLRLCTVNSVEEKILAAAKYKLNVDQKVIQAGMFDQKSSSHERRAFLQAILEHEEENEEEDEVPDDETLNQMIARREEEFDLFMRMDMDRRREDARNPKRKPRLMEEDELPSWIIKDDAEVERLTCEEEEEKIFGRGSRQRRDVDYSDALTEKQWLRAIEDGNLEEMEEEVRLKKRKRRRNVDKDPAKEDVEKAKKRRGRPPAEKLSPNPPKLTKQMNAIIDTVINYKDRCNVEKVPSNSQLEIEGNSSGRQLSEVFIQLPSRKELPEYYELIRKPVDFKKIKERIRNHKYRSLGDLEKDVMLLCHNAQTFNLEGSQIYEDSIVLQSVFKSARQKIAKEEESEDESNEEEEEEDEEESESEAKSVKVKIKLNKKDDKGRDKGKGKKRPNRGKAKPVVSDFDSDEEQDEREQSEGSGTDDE

## Nc1nnc(-c2ccccc2O)cc1N1CC2CCC(C1)N2c1cccc(OCCN2CCN(CCCC3CCN(c4ccc5c(c4)C(=O)N(C4CCC(=O)NC4=O)C5=O)CC3)CC2)c1 (stereo unspecified)
  DC50: 2 nM

## Nc1nnc(-c2ccccc2O)cc1N1CC(Oc2cccc(CN3CCN(C(=O)CN4CCC(c5ccc(NC6CCC(=O)NC6=O)cc5)CC4)CC3)c2)C1 (stereo unspecified)
  DC50: 3 nM

## Nc1nnc(-c2ccccc2O)cc1N1CC2CCC(C1)N2c1cccc(OCCN2CCN(CC3CCN(c4ccc5c(c4)C(=O)N(C4CCC(=O)NC4=O)C5=O)CC3)CC2)c1 (stereo unspecified)
  DC50: 2 nM

## Nc1nnc(-c2ccccc2O)cc1N1CCN(c2cccc(CN3CCN(C(=O)C4CCN(c5ccc6c(c5)C(=O)N(C5CCC(=O)NC5=O)C6=O)CC4)CC3)c2)C2(CC2)C1 (stereo unspecified)
  DC50: 4 nM

## Nc1nnc(-c2ccccc2O)cc1N1CCC(C(=O)N2CCC(C(=O)N3CCN(c4ccc(C5CCC(=O)NC5=O)cc4)CC3)CC2)(c2ccccc2)CC1 (stereo unspecified)
  DC50: 3 nM

## Nc1nnc(-c2cc(F)ccc2O)cc1N1CC2CCC(C1)N2c1cccc(CN2CCN(C(=O)C3CCN(c4ccc5c(c4)C(=O)N(C4CCC(=O)NC4=O)C5=O)CC3)CC2)c1 (stereo unspecified)
  DC50: 3 nM
